# Assay results published in ChEMBL document CHEMBL5131532, “Synthesis and Evaluation of Small Molecule Disruptors of the Aha1/Hsp90 Complex for the Reduction of Tau Aggregation” (ACS Med Chem Lett, 2022).
# Calls of active or inactive are those of the source. No cut-off for these calls is given here.
# Tested on: not listed separately
# Test: Disruption of recombinant GST-tagged human Aha1/His6-tagged full length human Hsp90alpha protein-protein interaction expressed in Escherichia coli incubated for 4 hrs by AlphaLisa assay
row,IC50 [µM],Compound
1,> 10,COc1cccc(-c2cc(C(=O)Nc3cccc([N+](=O)[O-])c3)ccc2OC)c1
2,4.04,COc1cccc(-c2cc(C(=O)Nc3ccc([N+](=O)[O-])cc3)ccc2OC)c1
3,> 10,COc1cc(NC(=O)c2ccc(OC)c(-c3cccc(OC)c3)c2)cc(OC)c1
4,> 10,COc1ccc(C(=O)Nc2ccc(C(F)(F)F)cc2)cc1-c1cccc(CO)c1
5,> 10,COc1ccc(C(=O)Nc2ccc(C(F)(F)F)cc2)c(-c2ccc(O)cc2)c1
6,> 10,COc1cccc(-c2cc(C(=O)Nc3cccc(Cl)c3)ccc2OC)c1
7,> 10,COC(=O)c1cccc(NC(=O)c2ccc(OC)c(-c3cccc(OC)c3)c2)c1
8,> 10,COc1ccc(C(=O)Nc2ccc(C(F)(F)F)cc2)c(-c2ccc(Cl)c(C(F)(F)F)c2)c1
9,> 10,COc1cccc(-c2cc(C(=O)Nc3cccc(Cl)c3Cl)ccc2OC)c1
10,> 10,COc1ccc(C(=O)Nc2ccc(C(F)(F)F)cc2)c(-c2cccc(O)c2)c1
11,9.05,COc1ccc(C(=O)Nc2ccc(C(F)(F)F)cc2)cc1-c1c(OC)cccc1OC
12,9.65,COc1ccccc1-c1cc(C(=O)Nc2ccc(C(F)(F)F)cc2)ccc1OC
13,> 10,COc1ccc(C(=O)Nc2ccc(C(F)(F)F)cc2)cc1-c1cccc(OC)c1OC
14,> 10,COc1ccc(C(=O)Nc2ccc(C(F)(F)F)cc2)cc1-c1cccc(F)c1
15,> 10,COc1ccc(C(=O)Nc2ccc(C(F)(F)F)cc2)cc1-c1cccc(C(F)(F)F)c1
16,> 10,COc1ccc(C(=O)Nc2ccc(C(F)(F)F)cc2)cc1-c1ccc(Cl)c(Cl)c1
17,> 10,COC(=O)c1ccc(NC(=O)c2ccc(OC)c(-c3cccc(OC)c3)c2)cc1
18,4.83,COc1cccc(-c2cc(C(=O)Nc3ccc(C(F)(F)F)cc3)ccc2OC)c1
19,> 10,COc1ccc(C(=O)Nc2ccc(C(F)(F)F)cc2)c(-c2ccc(Cl)c(Cl)c2)c1
20,> 10,COc1ccc(-c2cc(C(=O)Nc3ccc(C(F)(F)F)cc3)ccc2OC)cc1
21,> 10,COc1ccc(C(=O)Nc2ccc(C(F)(F)F)cc2)cc1-c1ccccc1
22,6.03,COc1cccc(-c2cc(C(=O)Nc3ccc(Cl)cc3)ccc2OC)c1
23,> 10,COc1cccc(-c2cc(C(=O)Nc3ccc(Cl)cc3Cl)ccc2OC)c1

row,IC50 [µM],Compound
1,6.32,COc1cccc(-c2cc(C(=O)Nc3ccc(F)cc3)ccc2OC)c1
2,> 10,COc1cccc(-c2cc(C(=O)Nc3ccc(O)cc3)ccc2OC)c1
3,3.36,COc1ccc(C(=O)Nc2ccc(C(F)(F)F)cc2)cc1-c1cccc(N(C)C)c1
4,6.39,COc1ccc(C(=O)Nc2ccc(C(F)(F)F)cc2)cc1-c1ccc(O)cc1
5,9.53,COc1cccc(-c2cc(C(=O)Nc3ccc(OC)cc3OC)ccc2OC)c1
6,> 10,COc1cccc(-c2cc(OC)ccc2C(=O)Nc2ccc(C(F)(F)F)cc2)c1
7,3.32,COc1cccc(-c2cc(-c3nnnn3-c3ccc(C(F)(F)F)cc3)ccc2OC)c1
8,> 10,COc1ccc(-c2cc(OC)ccc2C(=O)Nc2ccc(C(F)(F)F)cc2)cc1
9,> 10,COc1cccc(-c2cc(C(=O)Nc3ccccc3)ccc2OC)c1
10,> 10,COc1ccc(C(=O)Nc2ccc(C(F)(F)F)cc2)c(-c2ccccc2OC)c1
11,> 10,COc1ccc(NC(=O)c2ccc(OC)c(-c3cccc(OC)c3)c2)cc1
12,7.23,COc1ccc(C(=O)Nc2ccc(C(F)(F)F)cc2)cc1-c1cccc(N)c1
13,> 10,COc1ccc(C(=O)Nc2ccc(C(F)(F)F)cc2)cc1-c1cccc(Cl)c1
14,> 10,COc1ccc(C(=O)Nc2ccc(C(F)(F)F)cc2)c(-c2ccc(Cl)cc2)c1
15,> 10,COc1cccc(-c2cc(C(=O)Nc3ccccc3Cl)ccc2OC)c1
16,> 10,COc1ccc(C(=O)Nc2ccc(C(F)(F)F)cc2)cc1-c1ccccc1O
17,> 10,COc1ccc(C(=O)Nc2ccc(C(F)(F)F)cc2)cc1-c1cccc(O)c1
18,8.57,COc1cccc(-c2cc(C(=O)Nc3ccc(C#N)cc3)ccc2OC)c1
19,> 10,COc1ccc(C(=O)Nc2ccc(C(F)(F)F)cc2)c(-c2ccccc2)c1
20,> 10,COc1ccc(C(=O)Nc2ccc(C(F)(F)F)cc2)cc1-c1ccc(Cl)cc1
21,> 10,COc1ccc(C(=O)Nc2ccc(C(F)(F)F)cc2)cc1-c1ccc(Cl)c(C(F)(F)F)c1
22,> 10,COc1ccc(C(=O)Nc2ccc(C(F)(F)F)cc2)cc1-c1ccc(C(F)(F)F)cc1

# Species: Homo sapiens
# Test: Disruption of recombinant human Aha1/Hsp90 alpha protein-protein interaction expressed in Escherichia coli […] assessed as inhibition of recombinant human P301L tau aggregation incubated for 30 mins by ThT fluorescence assay
row,Activity,Compound
1,Active,COc1ccc(C(=O)Nc2ccc(C(F)(F)F)cc2)cc1-c1cccc(N(C)C)c1
2,Active,COc1cccc(-c2cc(-c3nnnn3-c3ccc(C(F)(F)F)cc3)ccc2OC)c1

# Tested on: SH-SY5Y
# Test: Disruption of Aha1/Hsp90 alpha protein-protein interaction in human SH-SY5Y cells lysate at 10 uM incubated for 24 hrs by co-immunoprecipitation assay
# Assay type: subcellular
row,Activity,Compound
1,Active,COc1cccc(-c2cc(C(=O)Nc3ccc(C(F)(F)F)cc3)ccc2OC)c1
2,Active,COc1ccc(C(=O)Nc2ccc(C(F)(F)F)cc2)cc1-c1cccc(N(C)C)c1
3,Active,COc1cccc(-c2cc(-c3nnnn3-c3ccc(C(F)(F)F)cc3)ccc2OC)c1

# Tested on: SK-BR-3
# Test: Disruption of Aha1/Hsp90 protein-protein interaction in human SK-BR-3 cells lysate at 10 uM incubated for 24 hrs by co-immunoprecipitation assay
# Assay type: subcellular
row,Activity,Compound
1,Active,COc1cccc(-c2cc(C(=O)Nc3ccc(C(F)(F)F)cc3)ccc2OC)c1
2,Active,COc1ccc(C(=O)Nc2ccc(C(F)(F)F)cc2)cc1-c1cccc(N(C)C)c1
3,Active,COc1cccc(-c2cc(-c3nnnn3-c3ccc(C(F)(F)F)cc3)ccc2OC)c1
